# Laboratory results as given in DBAASP.
# Legend:
# Experiment in all cases: ≥ marks a high value that may be exact or a test limit, other limits are often not marked, values filed in µg/mL are converted to µM
# [1] = system: Bacillus subtilis KCTC 1998
# [2] = system: Candida albicans KCTC 7270
# [3] = system: Escherichia coli ATCC 25922
# [4] = system: Escherichia coli CCARM 1229
# [5] = system: Escherichia coli CCARM 1238
# [6] = system: Listeria monocytogenes KCTC 3710
# [7] = system: Pseudomonas aeruginosa 4007
# [8] = system: Pseudomonas aeruginosa 4891
# [9] = system: Pseudomonas aeruginosa ATCC 27853
# [10] = system: Salmonella typhimurium KCTC 1926
# [11] = system: Staphylococcus aureus ATCC 25923
# [12] = system: Staphylococcus aureus CCARM 3090
# [13] = system: Staphylococcus aureus CCARM 3518
# [14] = system: Trichosporon beigelii KCTC 7707
# [15] = system: Enterococcus faecalis ATCC 29212
# [16] = system: Escherichia coli UB1005
# [17] = system: Listeria monocytogenes
# [18] = system: Pseudomonas aeruginosa K799
# [19] = system: Salmonella enterica subsp. enterica serovar Typhimurium ATCC 14028s
# [20] = system: Staphylococcus epidermidis
# [21] = system: Candida albicans ATCC 10231
# [22] = system: Cryptococcus neoformans ATCC 32045
# [23] = system: Escherichia coli ATCC 2592
# [24] = system: Pseudomonas aeruginosa ATCC 10145
# [25] = system: Staphylococcus aureus ATCC 33591
# [26] = system: Acinetobacter baumannii ATCC 19606
# [27] = system: Escherichia coli BW25113 ΔsbmA
# [28] = system: Escherichia coli BW25113
# [29] = system: Klebsiella pneumoniae ATCC 700603
# [30] = system: Salmonella enterica subsp. enterica serovar Typhimurium ATCC 14028
# [31] = system: Aeromonas hydrophila
# [32] = system: Escherichia coli
# [33] = system: Staphylococcus aureus
# [34] = system: Vibrio alginolyticus
# [35] = system: Vibrio fluvialis
# [36] = system: Vibrio parahaemolyticus
smiles,measurement,setting,value
CC[C@H](C)[C@H](NC(=O)CNC(=O)[C@H](CCC(N)=O)NC(=O)[C@H](Cc1ccccc1)NC(=O)[C@@H](NC(=O)[C@H](CCCCN)NC(=O)[C@H](CCCCN)NC(=O)[C@H](CC(C)C)NC(=O)[C@H](C)NC(=O)[C@H](CC(N)=O)NC(=O)[C@H](CC(C)C)NC(=O)CN)C(C)C)C(=O)N[C@@H](Cc1cnc[nH]1)C(=O)N[C@@H](CCC(=O)O)C(=O)N[C@@H](C)C(=O)N[C@H](C(=O)N[C@@H](CCCCN)C(=O)N[C@@H](CCCCN)C(=O)N[C@H](C(=O)N[C@@H](CC(N)=O)C(=O)N[C@@H](CC(N)=O)C(=O)N[C@@H](Cc1cnc[nH]1)C(=O)N[C@H](C(=O)N[C@@H](CCC(N)=O)C(N)=O)C(C)C)[C@@H](C)CC)[C@@H](C)CC [GLNALKKVFQGIHEAIKKINNHVQ],MIC,[1],8 µM
same,MIC,[2],≥ 32 µM
same,MIC,[3],4 µM
same,MIC,[4],4 µM
same,MIC,[5],4 µM
same,MIC,[6],8 µM
same,MIC,[7],2 µM
same,MIC,[8],8 µM
same,MIC,[9],2 µM
same,MIC,[10],4 µM
same,MIC,[11],8 µM
same,MIC,[12],8 µM
same,MIC,[13],8 µM
same,MIC,[14],≥ 32 µM
CC[C@H](C)[C@@H]1NC(=O)[C@H](C(C)C)NC(=O)[C@H](C(C)C)NC(=O)[C@H]([C@@H](C)CC)NC(=O)[C@@H]2CCCN2C(=O)[C@@H](NC(=O)[C@H](CCCCN)NC(=O)[C@@H](N)CCCCN)CSSC[C@@H](C(=O)N[C@@H](CCCCN)C(=O)O)NC(=O)[C@H](C(C)C)NC(=O)[C@H](CCCN=C(N)N)NC1=O [KKCPIVVIRVCK],MIC,[15],> 46.2 µM
same,MIC,[16],11.5 µM
same,MIC,[17],11.5 µM
same,MIC,[18],≥ 46.2 µM
same,MIC,[19],23.1 µM
same,MIC,[11],> 46.2 µM
same,MIC,[20],≥ 46.2 µM
CC(C)C[C@H](NC(=O)[C@H](CCCCN)NC(=O)[C@H](CCCCN)NC(=O)[C@H](CC(C)C)NC(=O)[C@H](CC(C)C)NC(=O)[C@H](CCCCN)NC(=O)[C@H](CCCCN)NC(=O)[C@H](CC(C)C)NC(=O)[C@H](CC(C)C)NC(=O)[C@H](CCCCN)NC(=O)[C@H](CCCCN)NC(=O)[C@H](CC(C)C)NC(=O)[C@H](CC(C)C)NC(=O)[C@H](CCCCN)NC(=O)[C@H](CCCCN)NC(=O)[C@H](CC(C)C)NC(=O)[C@H](CC(C)C)NC(=O)[C@H](CCCCN)NC(=O)[C@H](CCCCN)NC(=O)[C@H](CC(C)C)NC(=O)[C@H](CC(C)C)NC(=O)[C@H](CCCCN)NC(=O)[C@H](CCCCN)NC(=O)[C@@H](N)CC(C)C)C(=O)O [LKKLLKKLLKKLLKKLLKKLLKKL],MIC,[21],121 µM
same,MIC,[22],≥ 42.9 µM
same,MIC,[23],30.2 µM
same,MIC,[24],22.3 µM
same,MIC,[25],≥ 85.8 µM
CC[C@H](C)[C@H](NC(=O)[C@@H]1CCCN1)C(=O)N[C@@H](CCCN=C(N)N)C(=O)N[C@@H](CCCN=C(N)N)C(=O)N1CCC[C@H]1C(=O)N1CCC[C@H]1C(=O)N[C@H](C(=O)N[C@@H](CCCN=C(N)N)C(=O)N1CCC[C@H]1C(=O)N1CCC[C@H]1C(=O)N[C@@H](Cc1ccccc1)C(=O)N[C@@H](Cc1ccc(O)cc1)C(=O)N1CCC[C@H]1C(=O)N1CCC[C@H]1C(=O)N[C@@H](Cc1ccccc1)C(=O)N[C@@H](CCCN=C(N)N)C(=O)N1CCC[C@H]1C(=O)N1CCC[C@H]1C(=O)N[C@H](C(=O)N[C@@H](CCCN=C(N)N)C(=O)N1CCC[C@H]1C(=O)O)[C@@H](C)CC)[C@@H](C)CC [PIRRPPIRPPFYPPFRPPIRP],MIC,[26],> 64 µM
same,MIC,[3],> 64 µM
same,MIC,[27],≥ 64 µM
same,MIC,[28],≥ 64 µM
same,MIC,[29],> 64 µM
same,MIC,[9],> 64 µM
same,MIC,[30],> 64 µM
same,MIC,[11],> 64 µM
CC[C@H](C)[C@H](NC(=O)[C@@H]1CCCN1C(=O)[C@@H]1CCCN1C(=O)[C@H](CCCN=C(N)N)NC(=O)[C@H](Cc1ccccc1)NC(=O)[C@@H](N)CCCN=C(N)N)C(=O)N[C@@H](CCCN=C(N)N)C(=O)N[C@@H](CCCN=C(N)N)C(=O)N1CCC[C@H]1C(=O)N1CCC[C@H]1C(=O)N[C@H](C(=O)N[C@@H](CCCN=C(N)N)C(=O)N1CCC[C@H]1C(=O)N1CCC[C@H]1C(=O)N[C@@H](Cc1ccccc1)C(=O)O)[C@@H](C)CC [RFRPPIRRPPIRPPF],MIC,[26],> 64 µM
same,MIC,[3],64 µM
same,MIC,[27],≥ 64 µM
same,MIC,[28],≥ 64 µM
same,MIC,[29],> 64 µM
same,MIC,[9],> 64 µM
same,MIC,[30],> 64 µM
same,MIC,[11],> 64 µM
CC[C@H](C)[C@H](NC(=O)CNC(=O)[C@H](CCC(N)=O)NC(=O)[C@H](Cc1c[nH]c2ccccc12)NC(=O)[C@@H](NC(=O)[C@H](CCCCN)NC(=O)[C@H](CCCCN)NC(=O)[C@H](CC(C)C)NC(=O)[C@H](C)NC(=O)[C@H](CC(N)=O)NC(=O)[C@H](CC(C)C)NC(=O)[C@@H](N)Cc1c[nH]c2ccccc12)C(C)C)C(=O)N[C@@H](Cc1cnc[nH]1)C(=O)N[C@@H](CCC(=O)O)C(=O)N[C@@H](C)C(=O)N[C@H](C(=O)N[C@@H](CCCCN)C(=O)N[C@@H](CC(C)C)C(=O)N[C@H](C(=O)N[C@@H](Cc1c[nH]c2ccccc12)C(=O)N[C@@H](CC(N)=O)C(=O)N[C@@H](Cc1c[nH]c2ccccc12)C(=O)N[C@H](C(=O)N[C@@H](CCC(N)=O)C(N)=O)C(C)C)[C@@H](C)CC)[C@@H](C)CC [WLNALKKVWQGIHEAIKLIWNWVQ],MIC,[1],≥ 32 µM
same,MIC,[2],≥ 32 µM
same,MIC,[3],16 µM
same,MIC,[4],≥ 32 µM
same,MIC,[5],≥ 32 µM
same,MIC,[6],≥ 32 µM
same,MIC,[7],≥ 64 µM
same,MIC,[8],≥ 64 µM
same,MIC,[9],16 µM
same,MIC,[10],16 µM
same,MIC,[11],32 µM
same,MIC,[12],≥ 32 µM
same,MIC,[13],≥ 32 µM
same,MIC,[14],≥ 32 µM
CC[C@H](C)[C@H](NC(=O)[C@H](Cc1cnc[nH]1)NC(=O)[C@H](C)NC(=O)[C@@H](NC(=O)[C@H](CC(N)=O)NC(=O)[C@H](Cc1cnc[nH]1)NC(=O)[C@H](CC(C)C)NC(=O)[C@H](C)NC(=O)CNC(=O)[C@H](Cc1ccc(O)cc1)NC(=O)[C@@H](N)Cc1ccc(O)cc1)[C@@H](C)O)C(=O)N[C@H](C(=O)N[C@@H](CC(C)C)C(=O)NCC(=O)N[C@@H](CCCN=C(N)N)C(=O)O)C(C)C [YYGALHNTAHIVLGR],MIC,[31],≥ 74.2 µM
same,MIC,[32],74.2 µM
same,MIC,[33],> 148 µM
same,MIC,[34],9.26 µM
same,MIC,[35],≥ 148 µM
same,MIC,[36],≥ 148 µM
